Laboratory results from patent publication US12077503B2, “Substituted cyclic amides and their use as herbicides” (FMC CORPORATION, priority 2015, dated 2024).

Experiments:
Format in all cases: in vivo
[1] = test system: sedge, umbrella (small-flower umbrella sedge, Cyperus difformis); experiment: Test B flooded paddy test; details: Cyperus difformis, 250 g ai/ha, Flood; 0 to 100 scale where 0 is no effect and 100 is complete control; read-out: Sedge, Umbrella plant response rating
Outline: (§1)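 2-leaf plants; pots flooded 3 cm over soil; cpd added to paddy water; depth held; greenhouse 13–15 d; visual rating vs controls, 0 = no effect, 100 = complete control.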

[2] = test system: barnyardgrass (Echinochloa crus-galli); experiment: Test B flooded paddy test; details: Echinochloa crus-galli, 250 g ai/ha, Flood; 0 to 100 scale where 0 is no effect and 100 is complete control; read-out: Barnyardgrass plant response rating
Outline: as §1

[3] = test system: ducksalad (Heteranthera limosa); experiment: Test B flooded paddy test; details: Heteranthera limosa, 250 g ai/ha, Flood; 0 to 100 scale where 0 is no effect and 100 is complete control; read-out: Ducksalad plant response rating
Outline: as §1

[4] = test system: rice (Oryra sativa); experiment: Test B flooded paddy test; details: Oryza sativa, 250 g ai/ha, Flood; 0 to 100 scale where 0 is no effect and 100 is complete control; read-out: Rice plant response rating
Outline: as §1

[5] = test system: pigweed (Amaranthus retroflexus); experiment: Test A preemergence; details: Amaranthus retroflexus, pre-emergence, 240 h, 0 to 100 scale where 0 is no effect and 100 is complete control, read-out: Pigweed plant response rating; for pest or weed control at 31 g/ha: 31 g ai/ha, Preemergence; for pest or weed control at 125 g/ha: 125 g ai/ha, preemergence, approx. 10 d
[6] = test system: ragweed (common ragweed, Ambrosia elatior); experiment: Test A preemergence; details: Ambrosia artemisiifolia, pre-emergence, 240 h, 0 to 100 scale where 0 is no effect and 100 is complete control, read-out: Ragweed plant response rating; for pest or weed control at 31 g/ha: 31 g ai/ha, Preemergence; for pest or weed control at 125 g/ha: 125 g ai/ha, preemergence, approx. 10 d
Outline: (§2)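 Seeded soil received test chemicals as a preemergence directed spray, and seedlings at one to two leaves, 2–10 cm tall, received them postemergence, in a non-phytotoxic, surfactant-containing solvent mixture. Pots were held in a greenhouse for approximately 10 d, then rated for injury from 0, no effect, to 100, complete control.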

[7] = test system: giant foxtail (Setaria faberii); experiment: Test A preemergence; details: Setaria faberi, pre-emergence, 240 h, 0 to 100 scale where 0 is no effect and 100 is complete control, read-out: Foxtail, Giant plant response rating; for pest or weed control at 31 g/ha: 31 g ai/ha, Preemergence; for pest or weed control at 125 g/ha: 125 g ai/ha, preemergence, approx. 10 d
Outline: as §2

[8] = test system: barnyardgrass (Echinochloa crus-galli); experiment: Test A preemergence; details: Echinochloa crus-galli, pre-emergence, 240 h, 0 to 100 scale where 0 is no effect and 100 is complete control, read-out: Barnyardgrass plant response rating; for pest or weed control at 31 g/ha: 31 g ai/ha, Preemergence; for pest or weed control at 125 g/ha: 125 g ai/ha, preemergence, approx. 10 d
Outline: as §2

[9] = test system: Kochia (Kochia scoparia); experiment: Test A preemergence; details: Bassia scoparia, pre-emergence, 240 h, 0 to 100 scale where 0 is no effect and 100 is complete control, read-out: Kochia plant response rating; for pest or weed control at 31 g/ha: 31 g ai/ha, Preemergence; for pest or weed control at 125 g/ha: 125 g ai/ha, preemergence, approx. 10 d
Outline: as §2

[10] = test system: ryegrass, Italian (Italian ryegrass, Lolium multiflorum); experiment: Test A preemergence; details: Lolium multiflorum, pre-emergence, 240 h, 0 to 100 scale where 0 is no effect and 100 is complete control, read-out: Ryegrass, Italian plant response rating; for pest or weed control at 31 g/ha: 31 g ai/ha, Preemergence; for pest or weed control at 125 g/ha: 125 g ai/ha, preemergence, approx. 10 d
Outline: as §2

[11] = test system: pigweed (Amaranthus retroflexus); experiment: Test A postemergence; details: Amaranthus retroflexus, post-emergence, 240 h; for pest or weed control at 125 g/ha: 125 g ai/ha, postemergence, visual injury vs untreated controls after approx. 10 d, 0 = no effect, 100 = complete control, read-out: Pigweed plant response rating (0 to 100 scale); for pest or weed control at 31 g/ha: Postemergence, 31 g ai/ha, visual injury after approx. 10 d, 0 to 100 scale, 0 no effect, 100 complete control, read-out: Plant response rating, Pigweed
Outline: as §2

[12] = test system: wheat (Triticum aestivum); experiment: Test A postemergence; details: Triticum aestivum, post-emergence, 240 h; for plant injury at 125 g/ha: 125 g ai/ha, postemergence, visual injury vs untreated controls after approx. 10 d, 0 = no effect, 100 = complete control, read-out: Wheat plant response rating (0 to 100 scale); for plant injury at 31 g/ha: Postemergence, 31 g ai/ha, visual injury after approx. 10 d, 0 to 100 scale, 0 no effect, 100 complete control, read-out: Plant response rating, Wheat
Outline: as §2

[13] = test system: corn (Zea mays); experiment: Test A postemergence; details: Zea mays, post-emergence, 240 h; for plant injury at 125 g/ha: 125 g ai/ha, postemergence, visual injury on 0 to 100 scale (0 no effect, 100 complete control), approx. 10 d, read-out: Corn plant response rating; for Corn plant response rating (crop injury, 0 = no effect, 100 = complete kill) at 31 g/ha: Postemergence, 31 g ai/ha, visual injury after approx. 10 d, 0 to 100 scale, 100 complete control
Outline: as §2

[14] = test system: ragweed (common ragweed, Ambrosia elatior); experiment: Test A postemergence; details: Ambrosia artemisiifolia, post-emergence, 240 h; for pest or weed control at 125 g/ha: 125 g ai/ha, postemergence, visual injury vs untreated controls after approx. 10 d, 0 = no effect, 100 = complete control, read-out: Ragweed plant response rating (0 to 100 scale); for pest or weed control at 31 g/ha: Postemergence, 31 g ai/ha, visual injury after approx. 10 d, 0 to 100 scale, 0 no effect, 100 complete control, read-out: Plant response rating, Ragweed
Outline: as §2

[15] = test system: Galium (catchweed bedstraw, Galium aparine); experiment: Test A postemergence; details: Galium, post-emergence, 240 h; for pest or weed control at 125 g/ha: 125 g ai/ha, postemergence, visual injury on 0 to 100 scale (0 no effect, 100 complete control), approx. 10 d, read-out: Galium plant response rating; for pest or weed control at 31 g/ha: Postemergence, 31 g ai/ha, visual injury after approx. 10 d, 0 to 100 scale, 0 no effect, 100 complete control, read-out: Plant response rating, Galium
Outline: as §2

[16] = test system: giant foxtail (Setaria faberii); experiment: Test A postemergence; details: Setaria faberi, post-emergence, 240 h; for pest or weed control at 125 g/ha: 125 g ai/ha, postemergence, visual injury on 0 to 100 scale (0 no effect, 100 complete control), approx. 10 d, read-out: Foxtail, Giant plant response rating; for pest or weed control at 31 g/ha: Postemergence, 31 g ai/ha, visual injury after approx. 10 d, 0 to 100 scale, 0 no effect, 100 complete control, read-out: Plant response rating, Foxtail, Giant
Outline: as §2

[17] = test system: barnyardgrass (Echinochloa crus-galli); experiment: Test A postemergence; details: Echinochloa crus-galli, post-emergence, 240 h; for pest or weed control at 125 g/ha: 125 g ai/ha, postemergence, visual injury on 0 to 100 scale (0 no effect, 100 complete control), approx. 10 d, read-out: Barnyardgrass plant response rating; for pest or weed control at 31 g/ha: Postemergence, 31 g ai/ha, visual injury after approx. 10 d, 0 to 100 scale, 0 no effect, 100 complete control, read-out: Plant response rating, Barnyardgrass
Outline: as §2

[18] = test system: Kochia (Kochia scoparia); experiment: Test A postemergence; details: Bassia scoparia, post-emergence, 240 h; for pest or weed control at 125 g/ha: 125 g ai/ha, postemergence, visual injury on 0 to 100 scale (0 no effect, 100 complete control), approx. 10 d, read-out: Kochia plant response rating; for pest or weed control at 31 g/ha: Postemergence, 31 g ai/ha, visual injury after approx. 10 d, 0 to 100 scale, 0 no effect, 100 complete control, read-out: Plant response rating, Kochia
Outline: as §2

[19] = test system: ryegrass, Italian (Italian ryegrass, Lolium multiflorum); experiment: Test A postemergence; details: Lolium multiflorum, post-emergence, 240 h; for pest or weed control at 125 g/ha: 125 g ai/ha, postemergence, visual injury vs untreated controls after approx. 10 d, 0 = no effect, 100 = complete control, read-out: Ryegrass, Italian plant response rating (0 to 100 scale); for pest or weed control at 31 g/ha: Postemergence, 31 g ai/ha, visual injury after approx. 10 d, 0 to 100 scale, 0 no effect, 100 complete control, read-out: Plant response rating, Ryegrass, Italian
Outline: as §2

[20] = test system: blackgrass (Alopecurus myosuroides); experiment: Test A postemergence; details: Alopecurus myosuroides, post-emergence, 240 h; for pest or weed control at 125 g/ha: 125 g ai/ha, postemergence, visual injury on 0 to 100 scale (0 no effect, 100 complete control), approx. 10 d, read-out: Blackgrass plant response rating; for pest or weed control at 31 g/ha: Postemergence, 31 g ai/ha, visual injury after approx. 10 d, 0 to 100 scale, 0 no effect, 100 complete control, read-out: Plant response rating, Blackgrass
Outline: as §2

Compound | pest or weed control at 250 g/ha [1] [%] | pest or weed control at 250 g/ha [2] [%] | pest or weed control at 250 g/ha [3] [%] | pest or weed control at 250 g/ha [4] [%] | pest or weed control at 31 g/ha [5] [%] | pest or weed control at 125 g/ha [5] [%] | pest or weed control at 31 g/ha [6] [%] | pest or weed control at 125 g/ha [6] [%] | pest or weed control at 31 g/ha [7] [%] | pest or weed control at 125 g/ha [7] [%] | pest or weed control at 31 g/ha [8] [%] | pest or weed control at 125 g/ha [8] [%] | pest or weed control at 31 g/ha [9] [%] | pest or weed control at 125 g/ha [9] [%] | pest or weed control at 31 g/ha [10] [%] | pest or weed control at 125 g/ha [10] [%] | pest or weed control at 125 g/ha [11] [%] | pest or weed control at 31 g/ha [11] [%] | plant injury at 125 g/ha [12] [%] | plant injury at 31 g/ha [12] [%] | further results
CN1CC(c2cccc(C(F)(F)F)c2)C(C(=O)Nc2ccccc2CO)C1=O (stereo not drawn) [Compound 1145] | 40 | 75 | 60 | 30 | 0 | 0 | 0 | 0 | 90 | 90 | 80 | 90 | 0 | 50 | 0 | 30 | 0 | 0 | 40 | 0 | plant injury at 125 g/ha [13]: 50%; Corn plant response rating (crop injury, 0 = no effect, 100 = complete kill) at 31 g/ha [13]: 0%; pest or weed control at 125 g/ha [14]: 0%; pest or weed control at 31 g/ha [14]: 0%; pest or weed control at 125 g/ha [15]: 0%; pest or weed control at 31 g/ha [15]: 0%; pest or weed control at 125 g/ha [16]: 90%; pest or weed control at 31 g/ha [16]: 50%; pest or weed control at 125 g/ha [17]: 80%; pest or weed control at 31 g/ha [17]: 60%; pest or weed control at 125 g/ha [18]: 0%; pest or weed control at 31 g/ha [18]: 0%; pest or weed control at 125 g/ha [19]: 20%; pest or weed control at 31 g/ha [19]: 0%; pest or weed control at 125 g/ha [20]: 50%; pest or weed control at 31 g/ha [20]: 0%
C=C(C)c1ccc([C@H]2CN(C)C(=O)[C@@H]2C(=O)Nc2cccc(F)c2F)cc1 [Compound 1149] | 0 | 45 | 75 | 30 | 0 | 40 | 0 | 0 | 80 | 90 | 70 | 90 | 0 | 20 | 0 | 20 | 0 | 0 | 0 | 0 | plant injury at 125 g/ha [13]: 0%; Corn plant response rating (crop injury, 0 = no effect, 100 = complete kill) at 31 g/ha [13]: 0%; pest or weed control at 125 g/ha [14]: 0%; pest or weed control at 31 g/ha [14]: 0%; pest or weed control at 125 g/ha [15]: 50%; pest or weed control at 31 g/ha [15]: 20%; pest or weed control at 125 g/ha [16]: 80%; pest or weed control at 31 g/ha [16]: 40%; pest or weed control at 125 g/ha [17]: 90%; pest or weed control at 31 g/ha [17]: 50%; pest or weed control at 125 g/ha [18]: 30%; pest or weed control at 31 g/ha [18]: 0%; pest or weed control at 125 g/ha [19]: 20%; pest or weed control at 31 g/ha [19]: 0%; pest or weed control at 125 g/ha [20]: 0%; pest or weed control at 31 g/ha [20]: 0%
